Laboratory results from PMC6222747, “Synthesis and Structure-Activity Relationship of Daphnetin Derivatives as Potent Antioxidant Agents” (Molecules : A Journal of Synthetic Chemistry and Natural …, 2018).

Assays:
[1] = system: mononuclear cells of umbilical blood; design: method as in PMID 15113635; settings: cited from earlier work
[2] = Metabolic stability assay in vitro (UGT and COMT incubation system, S9 fraction); type: in vitro ADME, human; settings: for half-life: UGT and COMT incubation system, pooled human S9, 2 mM UDPGA and 0.2 mM SAM, 37 °C, pH 7.4, read-out: metabolic elimination t1/2
Source text: The simultaneous improvement of utility as a drug and pharmacological activity is still a challenge for the structural optimization of lead compounds. From the view of the chemical structure, the catechol group is not only the pharmacophore of the coumarins but also the susceptible group for the attack of phase II metabolic enzymes. As phenolic hydroxyls, catechol coumarins primarily undergo conjugative reactions mediated by phase II metabolizing enzymes, including uridine-5-diphosphate glucuronosyl transferase (UGT) and catechol-O-methyltransferase (COMT). […] In summary, 4-carbethoxyl DAP 9 holds strong potential to be developed as an antioxidant agent with excellent antioxidant activity and good pharmacokinetic properties.
Metabolic stability assay in vitro
To determine the effects of a combination of glucuronidation and methylation, daphnetin and compound 9 were
incubated with S9 fraction in the presence of two cofactors (2 mM UDPGA and 0.2 mM SAM). The incubation mixture
contained pooled human S9 fraction (0.02 mg mL-1 protein), 5 mM MgCl2, 2 mM UDPGA, 0.2 mM SAM and 5 mM
daphnetin derivatives (dissolved in DMSO, final concentration 1%) in 200 mL of 50 mM Tris buffer (pH 7.4), as
described in the reported manuscript. Controls were incubated in the absence of UDPGA and SAM. After incubation at
37 °C for 0 to 6 0 min, the reactions were terminated by adding […] of cold acetonitrile. The samples were
centrifuged at 20 000 g for 20 min. The supernatants (200 mL) were subjected to assay for the time - dependent
esculetins depletion using HPLC.
Daphnetin and compound 9 were analyzed by a ultra - fast l iquid chromatography spectrometry system (Shimadzu,
Kyoto, Japan), equipped with two LC - 20AD pumps, a DGU - 20A3 vacuum degasser, a SIL - 20ACHT auto - sampler, a
CTO - 20AC column oven, an SPD - M 20A diode - array detector (DAD), a CBM - 20A communicati ons bus module, a […]
the equation: t1/2 = ln2/-k, where k represents the terminal elimination rate constant and is calculated as the negative […]

[3] = ABTS+ radical scavenging assay; type: biochemical; settings: 3 min at room temperature, absorbance 734 nm, triplicate
Experimental: (§1) The antioxidant activity is influenced by many factors, which cannot be fully described with a single antioxidant assay. Thus, in this study, antioxidant activities in vitro were evaluated using the free radical scavenging effect on 2,2′-diphenyl-1-picrylhydrazyl (DPPH), 2,2′-azinobis-(3-ethylbenzthiazoline-6-sulfonate) cation (ABTS^+). and the ferric reducing power (FRAP) assay, respectively, according to the literature with a slight modification.
The mixture was incubated in the dark at room temperature for 15–16 h before use. […] Each sample solution (0.1 mL) was added to 3.9 mL ABTS^+ solution, and the absorbance was measured at room temperature after 3 min. The Trolox standard solution (concentration range: 0–0.4 mmol/L) in ethanol was analyzed under the same conditions as those used for the calibration. […]

[4] = DPPH radical scavenging assay; type: biochemical; settings: for EC50: DPPH radical scavenging, 30 min at room temperature, absorbance 517 nm, triplicate; for DPPH antioxidant activity compared with DAP 1, result in words: DPPH assay
Experimental: as §1
Each sample in an ethanol solution (0.1 mL) was added to 3.9 mL DPPH ethanol solution (0.1 mmol/L). The solution was vortexed for 10 s and incubated at room temperature for 30 min. […] The Trolox standard solution (concentration range: 0–0.4 mmol/L) in ethanol was analyzed under the same conditions as those used for calibration. […]

[5] = Ferric reducing power (FRAP) assay; type: biochemical; settings: for reducing antioxidant power, fold higher than that of the standard antioxidant Trolox: relative to Trolox; for reducing antioxidant power (FRAP), result in words: compared with daphnetin or the parent compound
Experimental: as §1
The FRAP (ferric reducing antioxidant power) reagent was prepared with acetate buffer (300 mmol/L, pH 3.6), 2,4,6-tripyridyl-s-triazine (TPTZ) (10 mmol/L in HCl, 40 mmol/L) and FeCl3 (20 mmol/L). The proportions were 10:1:1 (v:v:v), respectively. Each sample solution was added to the FRAP reagent (1:30, v:v) and incubated at 37 °C for 5 min. The absorbance was determined at 593 nm using a spectrophotometer (Hitachi U-2800 Spectrophotometer, Tokyo, Japan). The Trolox standard solution (concentration range: 0–0.4 mmol/L) in ethanol was analyzed under the same conditions as those used for the calibration. The values of the reducing power were determined using a calibration curve of Trolox and expressed as the Trolox equivalent ([…], mmolTrolox/mmol sample).

[6] = system: human single cell DNA; design: method as in PMID 12561251; settings: cited from earlier work

Compound | EC50 [3] | EC50 [4] | reducing antioxidant power (FRAP), result in words [5] | further results
Cc1cc(=O)oc2c(O)c(O)ccc12 [Compound 2, 7,8-Dihydroxy-4-methyl-2H-chromen-2-one] | 224.5 ± 1.94 µM | 85.6 ± 2.13 µM | decreased activities of daphnetin but were still superior to Trolox | protection of mononuclear cells of umbilical blood from oxidative attack, compared with resveratrol [1]: stronger activities in protecting mononuclear cells of umbilical blood from oxidative attack than resveratrol; protection of human single cell DNA from oxidative attack, compared with curcumin and resveratrol [6]: more effective in protection of human single cell DNA from oxidative attack than curcumin and resveratrol
O=c1cc(-c2ccccc2)c2ccc(O)c(O)c2o1 [Compound 3, 7,8-Dihydroxy-4-phenyl-2H-chromen-2-one] | 198 ± 28.2 µM | 55.6 ± 0.78 µM | decreased activities of daphnetin but were still superior to Trolox | DPPH antioxidant activity compared with DAP 1, result in words [4]: lower than that of DAP 1
CC(C)(C)c1cc(=O)oc2c(O)c(O)ccc12 [Compound 4, 7,8-Dihydroxy-4-tert-butyl-2H-chromen-2-one] | 234.7 ± 2.03 µM | 65.5 ± 2.84 µM | decreased activities of daphnetin but were still superior to Trolox | 
[N-]=[N+]=NCc1cc(=O)oc2c(O)c(O)ccc12 [Compound 8, 7,8-Dihydroxy-4-azidemethyl-2H-chromen-2-one] | 238 ± 4.47 µM | 62.2 ± 3.73 µM | markedly decreased antioxidant activity | 
CC(=O)Oc1ccc2ccc(=O)oc2c1OC(C)=O [Compound 12, 2-oxo-2H-Chromene-7,8-diyl diacetate] | 4560 ± 50.1 µM | 698 ± 5.22 µM |  | 
C#CCNC(=O)c1cc2ccc(O)c(O)c2oc1=O [Compound 18] | 91.2 ± 2.29 µM | 55.6 ± 1.48 µM | this situation did not change | 
O=c1oc2c(O)c(O)ccc2cc1-c1nc2ccccc2s1 [Compound 19] | 86.6 ± 3.17 µM | 71.3 ± 2.4 µM | slightly reduced antioxidant activity | 
O=C(O)c1c(-c2nc3ccccc3s2)c(=O)oc2c(O)c(O)ccc12 [Compound 21, 3-(Benzo[d]thiazol-2-yl)-7,8-dihydroxy-2-oxo-2H-chromene-4-carboxylic acid] | 108 ± 6.35 µM | 130 ± 3.54 µM | significant decrease in antioxidant activity | 
NC(=O)c1c(-c2nc3ccccc3s2)c(=O)oc2c(O)c(O)ccc12 [Compound 22, 3-(benzo[d]thiazol-2-yl)-7,8-dihydroxy-2-oxo-2H-chromene-4-carboxamide] | 122 ± 4.41 µM | 66.8 ± 1.38 µM | lower antioxidant activity compared with that of compound 19 | 
O=c1oc2c(O)c(O)ccc2c(-c2nnn[nH]2)c1-c1nc2ccccc2s1 [Compound 23, 3-(Benzo[d]thiazol-2-yl)-7,8-dihydroxy-4-(1H-tetrazol-5-yl)-2H-chromen-2-one] | 121.7 ± 0.22 µM | 168 ± 11.6 µM | lower antioxidant activity compared with that of compound 19 | 
Cc1c(C(F)(F)F)c2ccc(O)c(O)c2oc1=O [Compound 24, 7,8-Dihydroxy-3-methyl-4-(trifluoromethyl)-2H-chromen-2-one] | 107 ± 6.23 µM | 53.8 ± 2.25 µM |  | 
Cc1c(C)c2c(c(C)c1O)CCC(C)(C(=O)O)O2 (stereo not drawn) [Trolox, 6-hydroxy-2,5,7,8-tetramethylchroman-2-carboxylic acid, reference compound] | 241 ± 2.52 µM | 53.2 ± 2.02 µM |  | 

Now those with a lower EC50 [4], led by results:

EC50 [3] | EC50 [4] | Compound | reducing antioxidant power (FRAP), result in words [5] | further results
80.52 ± 0.61 µM | 50.6 ± 0.61 µM | CC(=O)c1cc2ccc(O)c(O)c2oc1=O [Compound 15] |  | reducing antioxidant power, fold higher than that of the standard antioxidant Trolox [5]: 3 fold
222.7 ± 1.84 µM | 50.2 ± 1.12 µM | Methyl 2-(7,8-dihydroxy-2-oxo-2H-chromen-4-yl)acetic acid [Compound 10] | significant decrease in antioxidant activity | 
95.8 ± 4.18 µM | 47 ± 2.05 µM | N#Cc1cc2ccc(O)c(O)c2oc1=O [Compound 14] |  | reducing antioxidant power, fold higher than that of the standard antioxidant Trolox [5]: 3 fold
159 ± 4.63 µM | 46.2 ± 1.45 µM | O=c1ccc2ccc(O)c(O)c2o1 [Compound 1, 7,8-dihydroxycoumarin, reference compound] |  | protection of mononuclear cells of umbilical blood from oxidative attack, compared with resveratrol [1]: stronger activities in protecting mononuclear cells of umbilical blood from oxidative attack than resveratrol; half-life [2]: 20.3 min; reducing antioxidant power, fold higher than that of the standard antioxidant Trolox [5]: 2.5 fold
75.2 ± 1.58 µM | 45.7 ± 1.26 µM | O=c1cc(C(F)(F)F)c2ccc(O)c(O)c2o1 [Compound 5, 7,8-Dihydroxy-4-trifluoromethyl-2H-chromen-2-one] | three-fold increase in reducing antioxidant power | 
173 ± 4.83 µM | 45.6 ± 1.48 µM | COc1cc2ccc(=O)oc2c(O)c1O [Compound 11, Fraxetin, reference compound] |  | 
138.9 ± 0.14 µM | 44 ± 0.89 µM | CCOC(=O)c1cc2ccc(O)c(O)c2oc1=O [Compound 17] | this situation did not change | 
108 ± 1.42 µM | 43.7 ± 2.08 µM | O=c1oc2c(O)c(O)ccc2cc1-c1ccccc1 [Compound 13] |  | DPPH antioxidant activity compared with DAP 1, result in words [4]: more effective
146 ± 5.77 µM | 37.7 ± 1.16 µM | O=C(O)c1cc2ccc(O)c(O)c2oc1=O [Compound 16] | little effect on its antioxidant activity | 
 | 31.4 ± 0.68 µM | O=C(O)Cc1cc(=O)oc2c(O)c(O)ccc12 [Compound 9, 2-(7,8-Dihydroxy-2-oxo-2H-chromen-4-yl)acetic acid] | three-fold increase in reducing antioxidant power | half-life [2]: 96.5 min; t1/2 of compound 9 relative to that of compound 1 ([2]; UGT and COMT incubation systems in vitro): five-fold longer; EC50 ([3]; listed as 4-CH2COOH DAP (9)): 72.3 ± 2.7 µM
